According to publication PMC12503906, “Novel Pyrazolo [1,5‐a]−1,3,5‐Triazine Derivatives as CDK7 Inhibitors: Synthesis and Biological Insights in Pancreatic Ductal Adenocarcinoma Models” (Chemmedchem, 2025):
Read-outs that look alike come from different tables or passages of the source.

Tests used:
Bax/Bcl‐2 = Bax/Bcl‐2 ratio by RT‐PCR, PDAC3 cells; type: cell-based
Description: In order to understand modulation of downstream genes of CDK7, gene expression analysis by qPCR was performed in all cell lines. Cells (5 × 10^5/well) were seeded in 6‐well plates and treated with the compounds 1b and 1g at 1× and 4 × IC50 concentrations. Cell lysates were collected 24 h post‐treatment using 300 µL of TRIzol Reagent (Ambion, 15,596,018) per well. Total RNA was extracted by mixing 60 µL of chloroform to the samples, incubating for 3 min and centrifuging at 12,000 rcf for 15 min at 4 °C. The upper aqueous phase containing RNA was transferred to a new Eppendorf and mixed with 120 µL of cold isopropanol in order to allow the RNA to precipitate. Samples were incubated at RT for 10 min and were then centrifuged at 12,000 rcf for 10 min at 4 °C. The isopropanol was carefully removed, and the pellet was washed twice with 70% ETOH. Pellets were left to air dry and consequently resuspended in RNAse‐free water. Samples were left agitation on a thermomixer at 55 °C for 10 min at 600 rpm and were then quantified through NanoDrop technology (Thermo Scientific, NanoDrop One/One^c). RNA samples were stored at −80 °C.
In order to perform cDNA synthesis, the First Strand cDNA synthesis kit (Thermo Scientific, K1612) was used. The previously isolated RNA was mixed with 1 µL of oligo dT18 primer into a pcr tube. Nuclease free water was added to reach a final volume of 11 µL. Samples were centrifuged at 1200 rcf for 5 min and were then placed on a thermomixer at 65 °C for a few minutes. A master mix was prepared, including 4 µL of 5× reaction buffer, 1 µL of ribolock RNAse inhibitor, 2 µL of dntp mix (10 mM), and 2 µL of M‐mulv reverse transcriptase for each sample. In total 9 µL of master mix were added to each vial. Samples were centrifuged again and were finally synthesized, following a cycle of 60 min at 37 °C and 5 min at 70 °C. cDNA was now finally synthesized and could be stored at −20 °C. RT‐PCRs reactions were performed using SYBR Green (Bio‐Rad, 1,725,271) (5 µL per sample), primer mix (0.3 µM) (2 µL per sample), and cDNA (10 ng µL^− ^1) (3 µL per sample). […] RT‐PCR assays were carried out in a GeneAmp 5700 Sequence Detection System programmed to hold at 50 °C for 30 min, to hold at 95 °C for 10 min, and to complete 45 cycles of 95 °C for […] and 50 °C for 1 min. The genes that were investigated are shown in Table 5 , with their respective forward and reverse primer sequences.

PATU‐T spheroids = assay: PATU‐T 3D spheroids, resazurin viability; type: cell-based; conditions: three cell densities, 1 × IC50 and 4 × IC50
Description: The modulation of the growth of spheroids was utilized as a method to assess the effect of the novel compounds 1b and 1g in a 3D structure. The PATU‐T cell line was employed to make such a structure. Agarose 1.5% is a solid gel at RT; thus, in order to become a liquid solution, it was heated up into a microwave for about 30 s—1 min, depending on when it starts boiling. Once heated up, the bottle containing the agarose was wrapped in aluminum foil, and it was allowed to maintain the temperature and the liquid state of the agarose. Each well of a flat‐bottom 96‐well plate was coated with 70 µL of agarose. Plates were left to cool down and dried for 1 h at RT. Afterward, 7 × 10^3, 1 × 10^4, and 2 × 10^4 cells/well (200 µL) were seeded in order to identify the optimal amount of cell for the spheroid formation. Finally, the plates were centrifuged at 1200 rpm for 6 min and placed in the incubator for 7 days at 37 °C, 5% CO2. After one week, spheroids were imaged at day 0 h with the inverted routine microscope Nikon Eclipse Ts2 and were consequently treated with compounds 1b and 1g at 4 × IC50 and 1 × IC50. In order to assess the effects of the treatment, images were then taken every 3 days, and medium along with treatment was refreshed at the same interval. […] Cells were then collected, counted, and reseeded in 96‐well plates. […] Absorbance was read at 570 nm.

CDK7 = CDK7 (Homo sapiens, UniProt P50613); assay: In vitro CDK7 enzyme inhibition assay (ADP‐Glo); type: biochemical; design: purchased Promega Corporation VA7402
Sequence of CDK7 (P50613 whole entry): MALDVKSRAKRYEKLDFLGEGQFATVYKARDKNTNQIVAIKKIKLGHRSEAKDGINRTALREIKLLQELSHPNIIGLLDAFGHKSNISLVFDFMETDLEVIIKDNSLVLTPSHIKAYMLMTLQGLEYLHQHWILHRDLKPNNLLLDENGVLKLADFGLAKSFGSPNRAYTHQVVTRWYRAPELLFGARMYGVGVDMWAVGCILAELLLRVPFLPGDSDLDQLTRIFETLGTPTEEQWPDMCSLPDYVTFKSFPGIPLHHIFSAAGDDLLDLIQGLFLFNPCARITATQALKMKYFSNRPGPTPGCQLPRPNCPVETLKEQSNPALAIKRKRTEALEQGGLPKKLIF
Sequence of CDK7 (P51946 whole entry partner): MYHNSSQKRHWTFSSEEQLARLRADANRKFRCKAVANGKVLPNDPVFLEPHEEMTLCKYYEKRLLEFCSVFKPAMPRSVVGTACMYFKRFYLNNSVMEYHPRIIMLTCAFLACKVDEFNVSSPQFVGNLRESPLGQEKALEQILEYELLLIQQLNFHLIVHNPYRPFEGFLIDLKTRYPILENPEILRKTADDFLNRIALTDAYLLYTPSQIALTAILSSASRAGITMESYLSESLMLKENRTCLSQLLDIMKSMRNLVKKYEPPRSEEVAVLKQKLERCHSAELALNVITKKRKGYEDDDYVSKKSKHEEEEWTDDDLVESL
Sequence of CDK7 (P51948 whole entry partner): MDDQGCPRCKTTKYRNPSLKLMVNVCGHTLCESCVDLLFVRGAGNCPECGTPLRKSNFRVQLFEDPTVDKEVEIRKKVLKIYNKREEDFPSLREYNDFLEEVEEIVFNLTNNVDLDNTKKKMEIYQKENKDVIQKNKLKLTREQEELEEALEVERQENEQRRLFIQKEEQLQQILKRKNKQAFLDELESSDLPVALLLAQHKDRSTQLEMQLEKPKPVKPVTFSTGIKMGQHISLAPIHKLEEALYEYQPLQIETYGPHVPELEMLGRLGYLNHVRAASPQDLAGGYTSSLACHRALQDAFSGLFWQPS
Description: The CDK7 enzyme inhibition assay was conducted using the ADP‐Glo Kinase Assay (VA7402, Promega Corporation, Madison, WI, USA) according to the manufacturer's instructions. In this assay, CDK7 catalyzes the conversion of ATP to ADP. The reaction was terminated by adding the ADP‐Glo reagent, which depletes residual ATP. Subsequently, the kinase detection reagent was introduced to convert ADP back into ATP, which was then measured via a luciferase reaction, producing luminescence. The assay was carried out at room temperature, using DMSO as the solvent for the tested compounds. Each compound was tested at eight different concentrations. […] Luminescence was recorded using a BioTek plate reader (BioTek Instruments Inc.), as previously described.^[ [39] ^] The percentage of enzyme inhibition was determined for each compound at different concentrations, and mean IC50 values of triplicate experiments were calculated using GraphPad Prism.

With `Nc1ncnc2cc(-c3c[nH]c4ccc(Br)cc34)nn12` [Compound 1b, 7‐(5‐Bromo‐1H‐indol‐3‐yl)pyrazolo[1,5‐a][1,3,5]triazin‐4‐amine] the “Bax/Bcl‐2 ratio PDAC3” value (Bax/Bcl‐2; 1 × IC50, 24 h after treatment) was 0.44, the “Bax/Bcl‐2 ratio PDAC3” value (Bax/Bcl‐2; 4 × IC50, 24 h after treatment) was 0.01 and the “cell viability compared to untreated controls (resazurin)” value (PATU‐T spheroids) was “significantly reduced viability”. The IC50 (CDK7; ADP‐Glo assay, mean of triplicate experiments, read-out: CDK7 inhibition activity IC50) was 25 nM.

With `Cn1cc(-c2cc3ncnc(N)n3n2)c2cc(Br)ccc21` [Compound 1g, 7‐(5‐Bromo‐1‐methyl‐1H‐indol‐3‐yl)pyrazolo[1,5‐a][1,3,5]triazin‐4‐amine] the “Bax/Bcl‐2 ratio PDAC3” value (Bax/Bcl‐2; 1 × IC50, 24 h after treatment) was 0.36, the “Bax/Bcl‐2 ratio PDAC3” value (Bax/Bcl‐2; 4 × IC50, 24 h after treatment) was 0.38 and the “cell viability compared to untreated controls (resazurin)” value (PATU‐T spheroids) was “significantly reduced viability”. It also gave an IC50 (CDK7) of 28 nM.
